Patent publication US5532265A, “Treatment of central nervous system inflammatory disease with matrix metalloprotease inhibitors” (The Board of Trustees of the Leland Stanford Junior …, priority 1994, dated 1996)

Tests used:
[1] = test system: gelatinase A and B in the CSF from animals with EAE; experiment: In vitro inhibition of gelatinase activity in CSF (SDS/PAGE zymography); format: biochemical, mice
Description: In vitro inhibition of gelatinase activity. Gelatinase activity in a pooled CSF sample from animals with clinical signs of EAE (grade 2-3 for 4-5 d) was determined by SDS/PAGE zymography. CSF was applied without prior denaturation to a single-well 7.5% (wt/vol) polyacrylamide gel containing 0.1% (wt/vol) SDS to which 0.1% (wt/vol) tissue culture grade gelatin (Sigma Chemical Co., St. Louis, Mo.) was added and copolymerized. […] The gel (7 cm×10 cm×0.75 mm) was run for approximately 2 h at 20 mA. After electrophoresis the gel was washed (washing buffer: 50 mM Tris-HCL, 10 mM CaCl2, 0.02% (wt/vol) NaN3, 2.5% (vol/vol) Triton X-100, pH 7.5) to remove the SDS and sliced into strips. The resulting strips were incubated separately at 37° C. during 24 h (same buffer as for the washing, containing only 1% [vol/vol] Triton X-100) for development of the enzyme activity, stained with Coomassie brilliant blue R-250 and destained in methanol/acetic acid. Gelatinase activity was detected as unstained bands on a blue background. To assess the effect of protease inhibitors on the gelatinase activity present in the CSF, metalloprotease inhibitors (dissolved in DMSO) were added to the incubation buffer. GM 6001 was used at final concentrations from 0.1 to 33 μM; 1,10-phenanthroline (Sigma Chemical Co.) was used as a positive control at 2.5 mM, and the noninhibitor lane was incubated in 0.5% (vol/vol) DMSO.

[2] = In vivo inhibitor kinetics (GM 6001 concentration in CSF); set-up: species or system mice; settings: for concentration at 3 h: for at least 3 h
Description: In vivo inhibitor kinetics. Normal noninduced animals or animals with clinical signs of EAE for 2 d were given a single intraperitoneal injection of 4 mg GM 6001 and euthanized by CO2 inhalation after various time intervals. CSF was taken by suboccipital puncture. Pooled CSF from five animals per time point was frozen immediately at -70° C. GM 6001 concentrations were determined by reversed-phase HPLC by Bay Bioanalytical Laboratories, Richmond, Calif. was diluted into 20% acetonitrile in water and chromatographed on a C-18 reversed-phase column with fluorescence detection. Linearity was determined by spiking blank CSF with increasing amounts of GM 6001. The amount of GM 6001 in CSF samples was calculated based on recovery of GM 6001 and the internal standard in spiked samples. The lower limit for quantification of GM 6001 in the CSF samples was 60 ng/rnl.

EAE in SJL/J mice [3] = experiment: Clinical scoring of EAE; format: in vivo; set-up: key to Change in average cumulative score During treatment / Change in average cumulative score After treatment: change in cumulative EAE grade; 0 = no signs, 5 = death
Description: EAE induction, Female SJL/J mice (Jackson Laboratory, Bar Harbor, Me.) were used at 5-7 week of age. […] PLP peptide 139-151 was prepared by continuous flow solid phase synthesis according to the sequence (SEQ ID NO 1 ) HCLGKWLGHPDKF by the Protein and Nucleic Acid Facility, Beckman Center, Stanford, Calif. Peptide purity was examined by HPLC analysis and peptide identity was confirmed by amino-acid composition analysis.
EAE was scored clinically as follows: no neurological signs=grade 0, weak tail=grade 1, wobbly walk or limb paresis=grade 2, limb paralysis=grade 3, inability to move=grade 4, death=grade 5. Easy access to food and water was provided and animals with grade 3 or 4 received daily parenteral fluid.
[…] The same volume of vehicle was used as a control treatment. Animals were treated daily either from the day of disease induction for 20 d or from the onset of clinical signs for 10 d (randomized for the different treatment groups).

EAE in SJL/J mice [4] = experiment: Blood-brain barrier permeability (Evans blue); format: in vivo
Description: Mice were injected intravenously with 1% (wt/vol) Evans blue (Fisher Scientific Co., Fair Lawn, N.J.) in PBS at a dosage of 4 μl/g body weight. After 1 h the animals were euthanized by CO2 inhalation and perfused with PBS via the left ventricle. Brain and spinal cord were dissected and cut longitudinally. Half of the CNS was used for histopathological evaluation. The other half was weighed and tissue samples were then extracted for 3 d in formamide (5 μl/mg tissue) and the extracts centrifuged for 5 min at 500 g. Evans blue concentration in the extracts was determined by measuring the absorbance at 650 nm. The blood-brain barrier permeability index was calculated by dividing the value for each sample by the corresponding (brain or spinal cord) mean value of four normal noninduced animals.

EAE in SJL/J mice [5] = experiment: Histopathology of brain and spinal cord (inflammation, demyelination); format: in vivo; settings: for Demyelination Brain + SC / Inflammation Brain / Inflammation Spinal Cord: 1 × 1.33 mg/d i.p.; for Demyelination Brain + SC: demyelination score; for Inflammation Brain / Inflammation Spinal Cord: total inflammatory score
Description: Sections were stained with hematoxylin and eosin, Kluver-Barrera and Giemsa stain. Histopathology was assessed as follows. Individual inflammatory lesions were scored as 1=perivascular inflammatory cuff≤three cells thick, 2=>three cells thick. 3=parenchymal infiltrate. The total inflammatory score was then calculated by adding all the scores for individual lesions from all the sections for a given sample. The demyelination score was calculated the same way as inflammatory score, with 1=demyelinated rim around infiltrate, 2=demyelination extending into noninfiltrated tissue.

gelatinase B = settings: cited from earlier work
[6] = animals with EAE, single intraperitoneal dose of 4 mg
[7] = Experiment 1, from disease induction for 20 d, 2X/d 2.00 mg i.p.
[8] = Experiment 1, from onset of clinical signs for 10 d, 2X/d 2.00 mg i.p.
[9] = Experiment 2, from disease induction for 20 d, 1X/d 0.13 mg i.p.
[10] = Experiment 2, from disease induction for 20 d, 1X/d 0.40 mg i.p.
[11] = Experiment 2, from disease induction for 20 d, 1X/d 1.33 mg i.p.
[12] = Experiment 2, from disease induction for 20 d, 1X/d 4.00 mg i.p.
[13] = Experiment 2, from onset of clinical signs for 10 d, 1X/d 0.13 mg i.p.
[14] = Experiment 2, from onset of clinical signs for 10 d, 1X/d 0.40 mg i.p.
[15] = Experiment 2, from onset of clinical signs for 10 d, 1X/d 1.33 mg i.p.
[16] = Experiment 2, from onset of clinical signs for 10 d, 1X/d 4.00 mg i.p.
[17] = 3 days of treatment from onset of clinical signs
[18] = 10 days of treatment from onset of clinical signs

CNC(=O)[C@H](Cc1c[nH]c2ccccc12)NC(=O)[C@@H](CC(=O)NO)CC(C)C [GM 6001, N-[2(R)-2-(hydroxamidocarbonylmethyl)-4-methylpentanoyl]-L-tryptophan methylamide]
inhibition of gelatinase A compared with gelatinase B in CSF ([1]; CSF from animals with EAE): equally well inhibited
inhibition of gelatinase activity in CSF ([1]; GM 6001 at 1 μM to 33 μM, pooled CSF from animals with EAE, zymography): completely inhibited all gelatinase activity
inhibition of gelatinase activity in CSF ([1]; GM 6001 at 0.1 and 0.33 μM, pooled CSF from animals with EAE, zymography): partial inhibition
duration of detectable levels in the CSF [2, 6]: at least 4 h
time after injection at which detectable levels in the CSF start [2, 6]: 30 min
concentration at 8 h ([2]; mouse, csf, ip, animals with EAE, single i.p. dose of 4 mg, after 8 hours): 100 ng/mL
concentration at 16 h ([2]; mouse, csf, ip, animals with EAE, single i.p. dose of 4 mg, after 16 hours): < 60 ng/mL
concentration at 3 h ([2]; mouse, csf, ip, animals with EAE, single i.p. dose of 4 mg): 100 to 200 ng/mL
concentration at 3 h ([2]; mouse, csf, ip, animals with EAE, single i.p. dose of 4 mg, converted from ng/ml): 250 to 500 nM
concentration in the CSF ([2]; normal noninduced animals, single i.p. dose of 4 mg): never rose above the detection limit
efficacy at low dose when given from disease induction (EAE in SJL/J mice [3]; 0.13 mg/d once daily, P<0.05 (4 and 1.33 mg/d P<0.005)): still effective
efficacy of single daily dose compared with 2×2 mg/d (EAE in SJL/J mice [3]; 4 mg/d once daily i.p., both treatment schedules): comparable efficacy
Change in average cumulative score After treatment (EAE in SJL/J mice [3]; [7]): 9.9 ± 2.17
Change in average cumulative score During treatment (EAE in SJL/J mice [3]; [7]): 7.0 ± 2.57
Change in average cumulative score After treatment (EAE in SJL/J mice [3]; [8]): -7.2 ± 2.69
Change in average cumulative score During treatment (EAE in SJL/J mice [3]; [8]): -6.5 ± 2.08
Change in average cumulative score After treatment (EAE in SJL/J mice [3]; [9]): 18.0 ± 9.82
Change in average cumulative score During treatment (EAE in SJL/J mice [3]; [9]): 7.7 ± 3.09
Change in average cumulative score After treatment (EAE in SJL/J mice [3]; [10]): 23.9 ± 4.96
Change in average cumulative score During treatment (EAE in SJL/J mice [3]; [10]): 11.3 ± 0.94
Change in average cumulative score After treatment (EAE in SJL/J mice [3]; [11]): 12.0 ± 3.83
Change in average cumulative score During treatment (EAE in SJL/J mice [3]; [11]): 3.4 ± 1.77
Change in average cumulative score After treatment (EAE in SJL/J mice [3]; [12]): 22.2 ± 4.61
Change in average cumulative score During treatment (EAE in SJL/J mice [3]; [12]): 2.4 ± 1.16
Change in average cumulative score After treatment (EAE in SJL/J mice [3]; [13]): -10.6 ± 5.67
Change in average cumulative score During treatment (EAE in SJL/J mice [3]; [13]): 2.0 ± 1.92
Change in average cumulative score After treatment (EAE in SJL/J mice [3]; [14]): -7.9 ± 4.44
Change in average cumulative score During treatment (EAE in SJL/J mice [3]; [14]): -0.3 ± 2.03
Change in average cumulative score After treatment (EAE in SJL/J mice [3]; [15]): -15.0 ± 5.79
Change in average cumulative score During treatment (EAE in SJL/J mice [3]; [15]): -4.1 ± 1.81
Change in average cumulative score After treatment (EAE in SJL/J mice [3]; [16]): -7.1 ± 7.86
Change in average cumulative score During treatment (EAE in SJL/J mice [3]; [16]): -4.3 ± 2.69
clinical severity of the disease compared with the vehicle-treated group (EAE in SJL/J mice [3]; FIG. 1, from disease induction for 20 d, 2×2 mg/d i.p., 10 animals per group): significantly reduced
disease score, treatment of clinical relapse (EAE in SJL/J mice [3]; FIG. 3, 1×4 mg/d for 10 days from onset of clinical relapse, nine animals): statistically significant difference
recovery from the drop in body weight associated with the onset of EAE (EAE in SJL/J mice [3]; experiment 2): recovered faster
clinical scores after start of treatment (EAE in SJL/J mice [3]; from onset of clinical signs for 10 d, 2×2 mg/d, P<0.005 vs vehicle up to two days after treatment): decreased the day after the start of treatment
animals returned to score 0 (clinically normal) within 12 d following the onset of clinical signs (EAE in SJL/J mice [3]; from onset of clinical signs for 10 d, 2×2 mg/d, vehicle 3 out of 10): 8 out of 10
animals that returned to score 0 and had a clinical disease relapse during the follow-up period (EAE in SJL/J mice [3]; of the 8 recovered animals, 2×2 mg/d from onset for 10 d, vehicle all 3): 7 animals
reduction of disease severity when treated from disease onset (EAE in SJL/J mice [3]; once daily 4, 1.33, 0.40, 0.13 mg/d, P<0.05, FIG. 2): only 4 and 1.33 mg/d were significantly effective
Blood Brain Barrier Index Spinal Cord (EAE in SJL/J mice [4]; 3 days of treatment from onset of clinical signs, 1 × 1.33 mg/d i.p.): 0.7 ± 0.12
Blood Brain Barrier Index Brain (EAE in SJL/J mice [4]; 3 days of treatment from onset of clinical signs, 1 × 1.33 mg/d i.p., ratio of permeability for Evan's blue): 1.1 ± 0.16
Blood Brain Barrier Index Spinal Cord (EAE in SJL/J mice [4]; 10 days of treatment from onset of clinical signs, 1 × 1.33 mg/d i.p.): 1.1 ± 0.11
blood-brain barrier index (EAE in SJL/J mice [4]; after 10 d of disease, 1×1.33 mg/d from onset, vehicle significantly elevated, P<0.05): normal
Demyelination Brain + SC (EAE in SJL/J mice [5]; [17]): 3.7 ± 0.88
Inflammation Brain (EAE in SJL/J mice [5]; [17]): 31.7 ± 5.17
Inflammation Spinal Cord (EAE in SJL/J mice [5]; [17]): 14.7 ± 1.67
Demyelination Brain + SC (EAE in SJL/J mice [5]; [18]): 2.3 ± 0.63
Inflammation Brain (EAE in SJL/J mice [5]; [18]): 21.0 ± 3.14
Inflammation Spinal Cord (EAE in SJL/J mice [5]; [18]): 15.0 ± 3.24
inflammatory and demyelination scores compared with vehicle (EAE in SJL/J mice [5]; after 3 and 10 d of treatment, 1×1.33 mg/d from onset, differences not statistically significant): lower after 3 and 10 d of treatment with GM 6001 in all but one group
Ki (gelatinase B): 0.2 nM

c1cnc2c(c1)ccc1cccnc12 [phenanthroline, 1,10-phenanthroline, reference compound]
inhibition of gelatinase activity in CSF ([1]; phenanthroline 2.5 mM, positive control): served as an inhibitory control
